Experimental data published in ChEMBL document CHEMBL1201862, “PubChem BioAssay data set” (2004).
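The compound was tested at five concentrations on cells cultured in 96-well plates, with a 48-hour exposure period. At the GI50, growth is halved.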 Active and inactive are the calls of the source. Rule as the data show it: active = GI50 up to about 1.1 µM and inactive = higher.

How the values were obtained:
Assay in all cases: NCI anticancer screen, dose series, 48 h
[1] = tested on: SK-MEL-5
[2] = tested on: EKVX
[3] = tested on: SF-268
[4] = tested on: SW-620
[5] = tested on: NCI-H226
[6] = tested on: OVCAR-5
[7] = tested on: HOP-92
[8] = tested on: RXF 393
[9] = tested on: A498
[10] = tested on: SNB-75
[11] = tested on: A549
[12] = tested on: SNB-19
[13] = tested on: HCC 2998
[14] = tested on: IGROV-1
[15] = tested on: MOLT-4
[16] = tested on: SK-MEL-28

Measured: GI50

COc1cc(OC)cc(C(=O)Cc2c(C(=O)c3ccccc3)c3ccccc3n2C(=O)c2ccccc2)c1
inactive: [1] 13.1 µM | [2] 55.2 µM | [3] 65.3 µM | [4] 37.5 µM | [5] 31.1 µM | [6] > 100 µM | [7] 3.78 µM | [8] 43.6 µM | [9] 13.2 µM | [10] 7.46 µM | [11] 25.3 µM | [12] 11.3 µM | [13] 43.4 µM | [14] 31.3 µM | [15] 9.4 µM | [16] 34.4 µM

Nc1nc(-c2ccccc2)cc(-c2cc(Cl)ccc2O)n1
inactive: [2] 46.9 µM | [3] 49.4 µM | [4] > 100 µM | [5] > 100 µM | [6] > 100 µM | [7] > 100 µM | [8] 64.3 µM | [9] > 100 µM | [10] 28.7 µM | [11] 42.7 µM | [12] 53.8 µM | [13] > 100 µM | [14] 49.3 µM | [15] > 100 µM | [16] > 100 µM

C1CCN(c2nsc(N3CCCCC3)n2)CC1
inactive: [1] > 100 µM | [2] > 100 µM | [3] > 100 µM | [4] > 100 µM | [5] > 100 µM | [6] > 100 µM | [7] 97.1 µM | [8] > 100 µM | [9] > 100 µM | [10] > 100 µM | [11] > 100 µM | [12] > 100 µM | [13] > 100 µM | [14] > 100 µM | [15] > 100 µM | [16] > 100 µM

COc1ccc(CCCN2c3ccccc3Sc3ccccc32)cc1
inactive: [1] > 100 µM | [2] > 100 µM | [3] > 100 µM | [4] 22.8 µM | [5] > 100 µM | [6] > 100 µM | [7] > 100 µM | [8] > 100 µM | [9] > 100 µM | [10] > 100 µM | [11] > 100 µM | [12] > 100 µM | [13] > 100 µM | [14] > 100 µM | [15] 19.6 µM | [16] > 100 µM

CC(C)N(C(=O)C1(C)CC1)C(C)C
inactive: [1] > 100 µM | [2] > 100 µM | [3] > 100 µM | [4] > 100 µM | [5] > 100 µM | [6] > 100 µM | [7] > 100 µM | [8] > 100 µM | [9] > 100 µM | [10] > 100 µM | [11] > 100 µM | [12] > 100 µM | [13] > 100 µM | [14] > 100 µM | [15] > 100 µM | [16] > 100 µM

N#CC(N)(C(=O)C(=O)NCCCNC(=O)C(=O)C(N)(C#N)c1ccc(Cl)cc1)c1ccc(Cl)cc1 (stereo unspecified)
inactive: [1] > 100 µM | [2] > 100 µM | [3] > 100 µM | [4] > 100 µM | [5] > 100 µM | [6] > 100 µM | [7] > 100 µM | [8] > 100 µM | [9] > 100 µM | [10] > 100 µM | [11] > 100 µM | [12] > 100 µM | [13] > 100 µM | [14] > 100 µM | [15] > 100 µM | [16] > 100 µM

CC(C(=O)Oc1ccc2ccccc2c1-c1c(O)ccc2ccccc12)c1ccccc1 (stereo unspecified)
inactive: [1] 13.7 µM | [2] 16.8 µM | [3] > 10 µM | [4] 15.2 µM | [5] 10.1 µM | [6] 16.9 µM | [7] 10.3 µM | [8] 11 µM | [9] 15.9 µM | [10] 9.79 µM | [11] 13.6 µM | [12] 14.7 µM | [13] 14.5 µM | [14] 17.1 µM | [15] 7.67 µM | [16] 15.4 µM

NS(=O)(=O)c1ccc(NC(=O)COC(=O)c2cccc3c(=O)c4ccccc4[nH]c23)cc1
inactive: [1] > 83.4 µM | [2] 38.2 µM | [3] 15.9 µM | [4] 52.7 µM | [5] 19.6 µM | [6] > 56.5 µM | [7] 16.5 µM | [8] 17.5 µM | [9] 17.9 µM | [10] 14.4 µM | [11] 46.9 µM | [12] 17 µM | [13] 39.4 µM | [14] 21.5 µM | [15] 14.3 µM | [16] 50.8 µM

CC(=O)C1C(=O)NC(=O)C1=O (stereo unspecified)
inactive: [1] > 100 µM | [2] > 100 µM | [3] > 100 µM | [4] 29.2 µM | [5] > 100 µM | [6] > 100 µM | [7] > 100 µM | [8] > 100 µM | [9] > 100 µM | [10] > 100 µM | [12] > 100 µM | [13] > 100 µM | [14] > 100 µM | [16] > 100 µM
